The text below walks through data of ChEMBL document CHEMBL4825753 (J Med Chem, 2021).

In general, logD refers to the decadic logarithm of the distribution of all forms, ionised or not, between an organic phase and buffer at a given pH. The low end stands for lower lipophilicity, the high end for higher lipophilicity.

The data set in a line: Lipophilicity, log D of the compound at pH 7.4. It is filed as physicochemical. The settings on record: buffer.

The compound `CN(Cc1ccc2nccn2c1)c1nnc(-c2ccc(-c3ccccc3Cl)cc2)o1` came in with a logD of 4.7.
